The values below come from publication PMC3744640 (Bioorganic & medicinal chemistry letters, 2013).

Molecules are shown by their SMILES. Entries after “also recorded” stand apart in the source; their conditions may differ.

For one assay, the target named is VEGFR-2 (Homo sapiens, UniProt P35968). The assay is described as follows: VEGFR-2 inhibition at a single concentration. To be noted: 10 μM concentration of test compound. The assay is classed as biochemical.
The target of the next assay is C-RAF (Homo sapiens, UniProt P04049). The assay is described as follows: C-RAF kinase inhibition. To be noted: compared with t-CUPM. The assay is classed as biochemical.
Sequence of C-RAF (P04049 whole entry): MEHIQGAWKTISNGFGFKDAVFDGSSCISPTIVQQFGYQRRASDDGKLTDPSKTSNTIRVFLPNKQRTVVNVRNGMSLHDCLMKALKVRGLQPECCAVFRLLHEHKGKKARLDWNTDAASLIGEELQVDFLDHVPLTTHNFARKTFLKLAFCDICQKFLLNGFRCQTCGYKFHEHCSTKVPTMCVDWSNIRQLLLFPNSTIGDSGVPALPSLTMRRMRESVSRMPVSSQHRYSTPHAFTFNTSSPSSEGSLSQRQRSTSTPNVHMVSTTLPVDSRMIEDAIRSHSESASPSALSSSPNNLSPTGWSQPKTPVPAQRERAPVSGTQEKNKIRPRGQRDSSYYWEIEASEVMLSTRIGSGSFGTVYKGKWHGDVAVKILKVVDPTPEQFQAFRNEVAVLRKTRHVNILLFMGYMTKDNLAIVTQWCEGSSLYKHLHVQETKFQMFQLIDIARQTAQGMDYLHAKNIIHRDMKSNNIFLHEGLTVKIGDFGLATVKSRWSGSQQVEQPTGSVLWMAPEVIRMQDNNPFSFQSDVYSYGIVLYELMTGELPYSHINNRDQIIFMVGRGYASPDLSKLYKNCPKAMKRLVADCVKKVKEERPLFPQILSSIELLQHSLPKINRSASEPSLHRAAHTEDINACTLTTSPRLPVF
The subject of assay [1] is lipopolysaccharide-induced inflammation. To be noted: lipopolysaccharide-induced inflammation murine model; cited from earlier work.
A further assay relates to HepG2. The assay is described as follows: growth inhibition of HepG2 liver carcinoma cells. The assay is classed as cell-based. Particulars: up to 100 μM.
Another assay relates to Huh-7. Nature of the assay: growth inhibition of Huh-7 liver carcinoma cells. The assay is classed as cell-based. To be noted: up to 100 μM.
The next assay relates to 10 recombinant kinases. Particulars: 10 μM concentration.

Sequence of VEGFR-2 (P35968 20-1356): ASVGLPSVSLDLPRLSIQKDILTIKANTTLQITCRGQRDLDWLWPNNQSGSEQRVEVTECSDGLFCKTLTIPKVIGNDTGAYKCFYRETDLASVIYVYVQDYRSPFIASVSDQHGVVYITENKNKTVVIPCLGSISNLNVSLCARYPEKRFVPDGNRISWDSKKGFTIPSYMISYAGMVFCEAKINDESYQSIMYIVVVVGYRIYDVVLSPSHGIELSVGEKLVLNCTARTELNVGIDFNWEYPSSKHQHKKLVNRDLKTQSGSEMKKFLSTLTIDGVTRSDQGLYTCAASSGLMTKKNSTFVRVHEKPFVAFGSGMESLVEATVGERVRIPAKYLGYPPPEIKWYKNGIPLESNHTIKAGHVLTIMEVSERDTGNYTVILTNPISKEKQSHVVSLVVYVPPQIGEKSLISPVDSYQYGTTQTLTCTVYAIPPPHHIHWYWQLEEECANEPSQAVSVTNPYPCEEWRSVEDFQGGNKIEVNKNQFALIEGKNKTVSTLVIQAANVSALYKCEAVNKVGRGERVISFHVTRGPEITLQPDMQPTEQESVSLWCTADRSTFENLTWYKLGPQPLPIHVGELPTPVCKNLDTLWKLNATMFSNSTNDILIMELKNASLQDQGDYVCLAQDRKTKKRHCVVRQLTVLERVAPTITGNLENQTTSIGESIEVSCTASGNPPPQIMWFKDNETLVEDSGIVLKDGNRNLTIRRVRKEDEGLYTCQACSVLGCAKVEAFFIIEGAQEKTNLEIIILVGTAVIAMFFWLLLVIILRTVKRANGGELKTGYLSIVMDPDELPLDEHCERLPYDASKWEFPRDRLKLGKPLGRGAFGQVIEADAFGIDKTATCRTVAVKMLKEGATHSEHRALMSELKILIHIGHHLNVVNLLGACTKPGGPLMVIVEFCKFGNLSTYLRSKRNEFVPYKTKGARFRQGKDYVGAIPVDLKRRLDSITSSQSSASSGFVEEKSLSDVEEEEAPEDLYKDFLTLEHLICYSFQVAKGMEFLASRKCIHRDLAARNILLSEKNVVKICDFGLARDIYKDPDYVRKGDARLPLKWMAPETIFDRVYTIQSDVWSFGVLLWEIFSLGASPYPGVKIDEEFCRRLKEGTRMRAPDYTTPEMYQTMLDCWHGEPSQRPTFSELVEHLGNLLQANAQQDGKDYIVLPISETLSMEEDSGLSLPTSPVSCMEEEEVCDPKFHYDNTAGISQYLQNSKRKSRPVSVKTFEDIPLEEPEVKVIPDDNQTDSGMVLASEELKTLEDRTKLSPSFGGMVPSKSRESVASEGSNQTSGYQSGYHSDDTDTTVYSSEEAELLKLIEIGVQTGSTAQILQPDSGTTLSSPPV

For `CNC(=O)c1ccc(O[C@H]2CC[C@H](NC(=O)Nc3ccc(Cl)c(C(F)(F)F)c3)CC2)cn1` [compound 9], on VEGFR-2, the “Percent inhibition against VEGFR-2 (in words)” value (from here on “Percent inhibition”) was “displayed potency towards VEGFR-2”. Besides, the “fold less activity against C-RAF relative to t-CUPM” value on C-RAF is 2.3 fold.

Turning to `O=C(Nc1ccc(Cl)c(C(F)(F)F)c1)N[C@H]1CC[C@H](Oc2cccc(C(=O)O)c2)CC1` [compound 7, trans-3-{4-[3-(4-chloro-3-trifluoromethyl-phenyl)-ureido]-cyclohexyloxy}-benzoic acid], the “Percent inhibition” value on VEGFR-2 is on record as “lack of VEGFR-2 inhibition”.

Take `CNC(=O)c1cccc(O[C@H]2CC[C@H](NC(=O)Nc3ccc(Cl)c(C(F)(F)F)c3)CC2)c1` [compound 8]: at VEGFR-2 (10 µM), the “Percent inhibition” value was “little inhibitory activity; also recorded: lack of VEGFR-2 inhibition”.

Take `CNC(=O)c1cc(Oc2ccc(NC(=O)Nc3ccc(Cl)c(C(F)(F)F)c3)cc2)ccn1` [sorafenib]: the “anti-inflammatory response (in words)” value in assay [1] is reported as “exhibits similar anti-inflammatory responses as conventional sEH inhibitors”.

As for `CS(=O)(=O)N1CCC(NC(=O)Nc2ccc(OC(F)(F)F)cc2)CC1` [TUPS], the “effect on cell viability (in words)” value in the assay on HepG2 and with Huh-7 was “no observable effects on cell viability” throughout.

`CNC(=O)c1cc(Oc2ccc(NC(=O)NC34CC5CC(CC(C5)C3)C4)cc2)ccn1` [compound 21]: at VEGFR-2, the “Percent inhibition” value is “displayed potency towards VEGFR-2”.

Consider `CNC(=O)c1cc(Oc2ccc(NC(=O)Nc3ccc(OC(F)(F)F)cc3)cc2)ccn1` [compound 22], for which the “Percent inhibition” value at VEGFR-2 is recorded as “displayed potency towards VEGFR-2”.

As for `O=C(Nc1ccc(OC(F)(F)F)cc1)N[C@H]1CC[C@H](Oc2ccc(C(=O)O)cc2)CC1` [compound 12, trans-4-{4-[3-(4-trifluoromethoxy-phenyl)-ureido]-cyclohexyloxy}-benzoic acid], the “multi-kinase inhibition (in words)” value in the assay on 10 recombinant kinases was “no significant multi-kinase inhibition”.

In the case of `CNC(=O)c1cc(O[C@H]2CC[C@H](NC(=O)Nc3ccc(Cl)c(C(F)(F)F)c3)CC2)ccn1` [compound 4, trans-4-{4-[3-(4-chloro-3-trifluoromethyl-phenyl)-ureido]-cyclohexyloxy}-pyridine-2-carboxylic acid methylamide], the “Percent inhibition” value on VEGFR-2 is recorded as “displayed potency towards VEGFR-2”.

`CNC(=O)c1cc(O[C@H]2CC[C@@H](NC(=O)Nc3ccc(Cl)c(C(F)(F)F)c3)CC2)ccn1` [compound 17]: the “Percent inhibition” value on VEGFR-2 was “lack of VEGFR-2 inhibition”.
